{"source": "patent US7008943B2", "about": "“1-(Pyrrolidin-1-ylmethyl)-3-(pyrrol-2-ylmethylidene)-2-indolinone derivatives” (Pharmacia & Upjohn Company, priority 2000, dated 2006)", "key": {"[1]": {"experiment": "Plasma Stability Test: conversion of prodrug to drug after IV administration to dogs, HPLC analysis of blood plasma", "format": "in vivo", "conditions": "IV at 2 mg/mL, blood plasma followed by HPLC for 4 hours following dosing", "method": "The prodrug (3Z)-3-[(3,5-dimethyl-1H-pyrrol-2-yl)-methylidene]-1-(1-pyrrolidinylmethyl)-1,3-dihydro-2H-indol-2-one was administered IV at 2 mg/mL to dogs. Levels of both prodrug and drug (3(Z)-3-[(3,5-dimethyl-1H-pyrrol-2-yl)-methylidene]-1,3-dihydro-2H-indol-2-one) were followed by HPLC analysis of blood plasma for 4 hours following dosing."}, "[2]": {"experiment": "Aqueous solubility of prodrug versus parent compound", "format": "physicochemical", "conditions": "versus parent compound (II)", "from_the_text": "The prodrug compounds of the present invention have advantages over compounds of Formula (II) by virtue of improved aqueous solubility and formulability. […] It is contemplated that similar enhanced solubility will be observed for other compounds of Formula (I) carrying the pyrrolidin-1-ylmethyl moiety at the nitrogen of the indolinone ring. A general description of the advantages and uses of prodrugs as pharmaceutically useful compounds is given in an article by Waller and George in Br. J Clin. Pharmac., Vol. 28, pp. 497–507, 1989."}}, "data": [{"compound": "Cc1cc(C)c(/C=C2\\C(=O)N(CN3CCCC3)c3ccccc32)[nH]1", "note": "[Example 1, (3Z)-3-[(3,5-Dimethyl-1H-pyrrol-2-yl)-methylidene]-1-(1-pyrrolidinylmethyl)-1,3-dihydro-2H-indol-2-one]", "values": [{"measurement": "half-life for conversion of the prodrug to drug", "setting": "[1]", "result": 7.3, "unit": "min"}, {"measurement": "prodrug converted into drug (from area under the curve of drug concentration vs. time)", "setting": "[1]", "result": 80, "unit": "%"}, {"measurement": "aqueous solubility compared with the parent compound", "setting": "[2]", "result": "increased aqueous solubility"}]}]}
